Publication PMC12495326 (The Journal of Biological Chemistry, 2025)

Target: T1, recombinant hDHFR (human dihydrofolate reductase) (Homo sapiens, UniProt P00374)
T1 construct: gene DHFR
T1 sequence (P00374 1-187): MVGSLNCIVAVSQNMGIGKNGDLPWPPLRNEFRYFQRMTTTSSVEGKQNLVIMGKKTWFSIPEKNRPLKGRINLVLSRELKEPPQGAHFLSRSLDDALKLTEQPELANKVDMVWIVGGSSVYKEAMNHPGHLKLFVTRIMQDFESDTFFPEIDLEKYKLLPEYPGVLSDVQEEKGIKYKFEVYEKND
Assay: in vitro DHFR enzyme activity assay, dose-response
Type: biochemical

IC50: 141 nM
Structure (SMILES): CCc1nc(N)nc(N)c1-c1cc(Cl)cc(Cl)c1 [WCDD114]
